Results taken from ChEMBL document CHEMBL1137985, “Synthesis and enzymatic evaluation of xanthine oxidase-activated prodrugs based on inhibitors of thymidine phosphorylase” (Bioorg Med Chem Lett, 2004).
Where a name gives a salt, the structure may show the parent alone. Blank lines part the entries; values can stand above or below the compound they belong to.

Legend:
Thymidine phosphorylase [1] = molecular target: T1, Thymidine phosphorylase (Escherichia coli K-12, UniProt P07650); assay: Inhibition of Thymidine phosphorylase from Escherichia coli; no inhibition at 213 uM
T1 sequence (P07650 whole entry): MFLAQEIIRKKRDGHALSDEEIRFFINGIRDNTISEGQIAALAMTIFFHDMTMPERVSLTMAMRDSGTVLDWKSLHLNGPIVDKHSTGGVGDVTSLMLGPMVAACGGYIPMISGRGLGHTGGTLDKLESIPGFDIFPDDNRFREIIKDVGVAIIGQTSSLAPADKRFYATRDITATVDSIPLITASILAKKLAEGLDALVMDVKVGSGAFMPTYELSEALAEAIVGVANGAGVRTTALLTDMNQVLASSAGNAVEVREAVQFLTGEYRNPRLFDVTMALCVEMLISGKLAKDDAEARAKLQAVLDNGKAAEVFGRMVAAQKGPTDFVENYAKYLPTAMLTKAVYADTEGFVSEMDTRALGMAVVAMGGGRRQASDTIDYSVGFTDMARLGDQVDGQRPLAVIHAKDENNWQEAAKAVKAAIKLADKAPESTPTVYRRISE

Thymidine phosphorylase [2] = molecular target: T1, Thymidine phosphorylase; assay: Inhibition of Thymidine phosphorylase from Escherichia coli; no inhibition at 47.2 uM
Thymidine phosphorylase [3] = molecular target: T1, Thymidine phosphorylase; assay: Inhibition of Thymidine phosphorylase from Escherichia coli; no inhibition at 137 uM
Thymidine phosphorylase [4] = molecular target: T1, Thymidine phosphorylase; assay: Inhibition of Thymidine phosphorylase from Escherichia coli; no inhibition at 207 uM
Thymidine phosphorylase [5] = molecular target: T1, Thymidine phosphorylase; assay: Inhibition of Thymidine phosphorylase from Escherichia coli; no inhibition at 148 uM
Thymidine phosphorylase [6] = molecular target: T1, Thymidine phosphorylase

SMILES: Cl.N=C1CCCN1Cc1nc[nH]c(=O)c1Cl
IC50 (Thymidine phosphorylase [2]): No inhibition

SMILES: Nc1[nH]c(=O)ncc1Br
IC50 (Thymidine phosphorylase [3]): No inhibition

SMILES: O=c1ncc2cc[nH]c2[nH]1
IC50 (Thymidine phosphorylase [5]): No inhibition

Next, values leading:

IC50 (Thymidine phosphorylase [1]): No inhibition
SMILES: Nc1ncncc1Br

IC50 (Thymidine phosphorylase [4]): No inhibition
SMILES: O=c1[nH]cnc2[nH]ccc12

IC50 (Thymidine phosphorylase [5]): No inhibition
SMILES: Nc1nc[nH]c(=O)c1Br
